Experimental data reported in article PMC7717600, “Novel [(N-alkyl-3-indolylmethylene)hydrazono]oxindoles arrest cell cycle and induce cell apoptosis by inhibiting CDK2 and Bcl-2: synthesis, biological evaluation and in silico studies” (Journal of Enzyme Inhibition and Medicinal Chemistry, 2020).
Where two headings read alike, the source gives them in different places.

Tests used:
[1] = test system: MALME-3M
[2] = test system: TK-10; conditions: for TGI: TK-10
[3] = test system: A-549; test: SRB anti-proliferative assay; assay type: cell-based; conditions: Homo sapiens, A549; A-549, SRB, mean ± SE of 3
Procedure: Staurosporine, a clinically used antitumor drug, was co-assayed as a reference agent for the experiment.
Examination of the cytotoxic activity for the target conjugates was carried out in accordance with the SRB colorimetric assay protocol, as described previously.
In vitro anti-proliferative activity assay
Cells at a concentration of 0.50 x
Sulfo-Rhodamine-B stain (SRB) assay.
cell to the wall of the plate.
wells were prepared for each individual dose).
Unbound dye was removed by four

[4] = test system: RPMI-8226; conditions: for TGI: RPMI-8226
[5] = test system: NCI-H322M; test: NCI SRB screening
[6] = test system: OVCAR-4
[7] = test system: MDA-MB-231/ATCC
[8] = test system: CCRF-CEM
[9] = test system: A498; conditions: for TGI: A498
[10] = test system: SNB-75; conditions: for TGI: SNB-75
[11] = test system: T-47D
[12] = test system: ACHN
[13] = test system: HCT-15; conditions: for TGI: HCT-15
[14] = test system: K-562; conditions: for TGI: K-562
[15] = test system: 786-0; conditions: for TGI: 786-0
[16] = test system: SF-539; conditions: for TGI: SF-539
[17] = test system: OVCAR-3; conditions: for TGI: OVCAR-3
[18] = test system: SK-MEL-2; conditions: for TGI: SK-MEL-2
[19] = test system: HOP-62; conditions: for TGI: HOP-62
[20] = test system: HCC-2998; test: NCI SRB screening; assay type: cell-based, human
[21] = test system: HL-60(TB)

For `CCCn1cc(C=NN=C2C(=O)Nc3ccc(C)cc32)c2ccccc21` [Compound 8a], the TGI [1] was 6.03 µM, the GI % ([1]; 10 μM) was 49% and the “Growth Percent” value ([1]; 1.00E-5 Molar) was 51.68%. For the same compound, the TGI ([1]; listed as D - 795311 / 1) was 6.03E-6 Molar, the TGI [2] was over 100 µM and the GI % ([2]; TK-10, 10 μM) was “– (Only GI % higher than 10% are shown)”. For the same compound, the “Growth Percent” value ([2]; TK-10, 1.00E-5 Molar) was 106.72%, the TGI ([2]; listed as D - 795311 / 1) was over 1.00E-4 Molar and the IC50 [3] was 7.3 ± 0.42 µM. For the same compound, the TGI [4] was 3.96 µM, the GI % ([4]; RPMI-8226, 10 μM) was 125% and the “Growth Percent” value ([4]; RPMI-8226, 1.00E-5 Molar) was -24.86%. The TGI ([4]; listed as D - 795311 / 1) was 3.96E-6 Molar, the TGI [5] was over 100 µM and the GI % ([5]; 10 μM) was 53%. For the same compound, the “Growth Percent” value ([5]; 1.00E-5 Molar) was 47.76%, the GI50 ([5]; Homo sapiens) was 3.42 µM and the CC50 ([5]; Homo sapiens, read-out: LC50) was over 100 µM. The TGI ([5]; listed as D - 795311 / 1) was over 1.00E-4 Molar, the GI50 ([6]; OVCAR-4) was 0.93 µM and the TGI ([6]; OVCAR-4) was 25.60 µM. For the same compound, the GI % ([6]; OVCAR-4, 10 μM) was 58%, the “Growth Percent” value ([6]; OVCAR-4, 1.00E-5 Molar) was 41.83% and the TGI ([6]; OVCAR-4, listed as D - 795311 / 1) was 2.56E-5 Molar. For the same compound, the GI % ([7]; MDA-MB-231, 10 μM) was 66%, the TGI ([7]; MDA-MB-231/ATCC) was 7.40 µM and the “Growth Percent” value ([7]; MDA-MB-231/ATCC, 1.00E-5 Molar) was 34.35%. It also gave a TGI ([7]; MDA-MB-231/ATCC, listed as D - 795311 / 1) of 7.40E-6 Molar, a TGI [8] of over 100 µM and a GI % ([8]; 10 μM) of 101%. For the same compound, the “Growth Percent” value ([8]; 1.00E-5 Molar) was -0.65%, the TGI ([8]; listed as D - 795311 / 1) was over 1.00E-4 Molar and the TGI [9] was 7.50 µM. For the same compound, the GI % ([9]; A498, 10 μM) was 43%, the “Growth Percent” value ([9]; A498, 1.00E-5 Molar) was 57.21% and the TGI ([9]; listed as D - 795311 / 1) was 7.50E-6 Molar. For the same compound, the TGI [10] was 46.0 µM, the GI % ([10]; SNB-75, 10 μM) was 15% and the “Growth Percent” value ([10]; SNB-75, 1.00E-5 Molar) was 85.63%. The TGI ([10]; listed as D - 795311 / 1) was 4.60E-5 Molar, the GI50 [11] was 0.41 µM and the TGI [11] was 18.40 µM. The GI % ([11]; 10 μM) was 61%, the “Growth Percent” value ([11]; 1.00E-5 Molar) was 39.59% and the TGI ([11]; listed as D - 795311 / 1) was 1.84E-5 Molar. The TGI [12] was over 100 µM, the GI % ([12]; 10 μM) was 45% and the “Growth Percent” value ([12]; 1.00E-5 Molar) was 55.74%. For the same compound, the TGI ([12]; listed as D - 795311 / 1) was over 1.00E-4 Molar, the TGI [13] was 42.2 µM and the GI % ([13]; HCT-15, 10 μM) was 77%. For the same compound, the “Growth Percent” value ([13]; HCT-15, 1.00E-5 Molar) was 23.04%, the TGI ([13]; listed as D - 795311 / 1) was 4.22E-5 Molar and the TGI [14] was 20.5 µM. The GI % ([14]; K-562, 10 μM) was 83%, the “Growth Percent” value ([14]; K-562, 1.00E-5 Molar) was 17.61% and the TGI ([14]; listed as D - 795311 / 1) was 2.05E-5 Molar. The TGI [15] was 71.20 µM, the GI % ([15]; 786-0, 10 μM) was 36% and the “Growth Percent” value ([15]; 786-0, 1.00E-5 Molar) was 64.53%. For the same compound, the TGI ([15]; listed as D - 795311 / 1) was 7.12E-5 Molar, the TGI [16] was 17.1 µM and the GI % ([16]; SF-539, 10 μM) was 66%. The “Growth Percent” value ([16]; SF-539, 1.00E-5 Molar) was 33.94%, the TGI ([16]; listed as D - 795311 / 1) was 1.71E-5 Molar and the TGI [17] was 5.11 µM. For the same compound, the GI % ([17]; OVCAR-3, 10 μM) was 98%, the “Growth Percent” value ([17]; OVCAR-3, 1.00E-5 Molar) was 2.10% and the TGI ([17]; listed as D - 795311 / 1) was 5.11E-6 Molar. For the same compound, the TGI [18] was 8.03 µM, the GI % ([18]; SK-MEL-2, 10 μM) was 65% and the “Growth Percent” value ([18]; SK-MEL-2, 1.00E-5 Molar) was 35.06%. It also gave a TGI ([18]; listed as D - 795311 / 1) of 8.03E-6 Molar, a TGI [19] of 25.0 µM and a GI % ([19]; HOP-62, 10 μM) of 25%. For the same compound, the “Growth Percent” value ([19]; HOP-62, 1.00E-5 Molar) was 75.35%, the TGI ([19]; listed as D - 795311 / 1) was 2.50E-5 Molar and the TGI ([20]; HCC-2998) was 5.14 µM. The GI % ([20]; HCC-2998, 10 μM) was 53%, the “Growth Percent” value ([20]; HCC-2998, 1.00E-5 Molar) was 46.95% and the TGI ([20]; HCC-2998, listed as D - 795311 / 1) was 5.14E-6 Molar. It also gave a GI50 ([20]; Homo sapiens, HCC-2998) of 2.09 µM, a TGI ([21]; HL60(TB)) of 4.80 µM and a TGI ([21]; HL-60(TB)) of 4.80E-6 Molar. For the same compound, the GI % ([21]; HL-60(TB), 10 μM) was 123% and the “Growth Percent” value ([21]; HL-60(TB), 1.00E-5 Molar) was -22.61%.
